Data taken from US20240246918A1, “COMPOUNDS AND COMPOSITIONS AS EIF4E INHIBITORS AND THE USES THEREOF” (Ribometrix, Inc., priority 2022, published 2024).
Read-outs that look alike come from different tables or passages of the source.

Key:
human eIF4E protein = target: T1, human eIF4E protein (Homo sapiens, UniProt P06730); assay: Biochemical competitive binding assay (TR-FRET competition, EDA-m7GDP-ATTO-647N probe); details: read-out: hEIF4E TR-FRET IC50
T1 construct: purchased Novus NBP-45314
Method in brief: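 His-tagged human eIF4E (4 nM) was preincubated with Eu-anti-His antibody (2.5 nM) and added to compound (11-point, 4-fold dilutions) for 15 min. Then 5 nM EDA-m7GDP-ATTO-647N was added for 15 min, in HEPES pH 7.5, 100 mM KCl. The 665/620 TR-FRET ratio was normalized to controls, and IC50 was taken from 4-parameter fits.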

[1] = test system: COLO 205 colorectal tumor cells; assay: Tumor cell viability inhibition assay (CellTiter-Glo 2.0, 72 hours); format: cell-based; details: COLO 205 cell viability
Method in brief: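 COLO 205 cells (1500/well, RPMI-1640 + 10% FBS) exposed for 72 h to an 11-point, 4-fold dilution series; cellular ATP read by CellTiter-Glo 2.0 luminescence. Data normalized to DMSO and maximum-inhibition controls; IC50 from 4-parameter curve fit.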

[2] = test system: cap-dependent translation in Flp-In-293 reporter cells; assay: Cellular cap-dependent translation inhibition assay (dual luciferase assay, DLA; Fluc/Rluc ratio, 24 hours); format: cell-based
[3] = read-out: DLA 205 IC50; dual luciferase assay, Flp-In-293 reporter cells, 24 hours, Fluc/Rluc ratio
[4] = Homo sapiens, Flp-In-293, 24 h, dual luciferase assay, Flp-In-293 reporter cells, 24 hours, Fluc/Rluc ratio; read-out: DLA 205 IC50
[5] = dual luciferase assay, Flp-In-293 reporter cells, 24 hours, Fluc/Rluc ratio; read-out: DLA 205 IC50

T1 sequence (P06730 whole entry): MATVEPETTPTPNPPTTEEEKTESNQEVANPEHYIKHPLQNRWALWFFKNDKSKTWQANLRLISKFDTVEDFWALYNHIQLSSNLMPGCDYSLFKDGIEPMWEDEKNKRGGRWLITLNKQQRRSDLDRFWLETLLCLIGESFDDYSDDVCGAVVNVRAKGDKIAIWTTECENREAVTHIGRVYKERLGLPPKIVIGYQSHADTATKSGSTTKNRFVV

| SMILES | IC50 (human eIF4E protein) [nM] | IC50 [1] [nM] | IC50 [2, 3] [nM] | IC50 ([1]; Homo sapiens) [nM] | IC50 [2, 4] [nM] | IC50 [2, 5] [nM] | IC50 ([1]; Homo sapiens, COLO 205, 72 h) [nM] |
| --- | --- | --- | --- | --- | --- | --- | --- |
| COC1CCc2nc(C)n(CCOc3ccc(Cl)cc3-c3cc(C)nc4c(C(=O)O)csc34)c(=O)c2C1 (single isomer, unassigned) [Compound 5] | 100 to 500 | 5000 to 20000 | > 5000 | – | – | – | – |
| COC1CCc2nc(C)n(CCOc3ccc(Cl)cc3-c3cc(C)nc4c(C(=O)O)csc34)c(=O)c2C1 (single isomer, unassigned) [Compound 6] | 100 to 500 | – | 1000 to 5000 | 5000 to 20000 | – | – | – |
| Cc1nc2c(c(=O)n1CCOc1ccc(Cl)cc1-c1cccc(C(=O)O)c1)CC(N(C)C)CC2 (single isomer, unassigned) [Compound 24] | < 100 | 5000 to 20000 | – | – | < 1000 | – | – |
| Cc1nc2c(c(=O)n1CCOc1ccc(Cl)cc1-c1cccc(C(=O)O)c1)CC(N(C)C)CC2 (single isomer, unassigned) [Compound 25] | 100 to 500 | > 20000 | – | – | – | 1000 to 5000 | – |
| CO[C@@H]1CCN([C@H]2CCc3nc(C)n(CCOc4ccc(Cl)cc4-c4cc(C)nc5c(C(=O)O)csc45)c(=O)c3C2)C1 (single isomer, unassigned) [Compound 43] | < 100 | – | – | – | < 1000 | – | < 5000 |
| CO[C@H]1CCN([C@H]2CCc3nc(C)n(CCOc4ccc(Cl)cc4-c4cc(C)nc5c(C(=O)O)csc45)c(=O)c3C2)C1 (single isomer, unassigned) [Compound 44] | < 100 | – | – | – | < 1000 | – | < 5000 |
| CO[C@H]1CCN([C@@H]2CCc3nc(C)n(CCOc4ccc(Cl)cc4-c4cc(C)nc5c(C(=O)O)csc45)c(=O)c3C2)C1 (single isomer, unassigned) [Compound 48] | < 100 | – | – | – | < 1000 | – | < 5000 |
| Cc1cc(-c2cc(Cl)ccc2OCCn2c(C)nc3c(c2=O)CC(N2CC4COCC4C2)CC3)c2scc(C(=O)O)c2n1 (single isomer, unassigned) [Compound 67] | < 100 | – | – | – | < 1000 | – | < 5000 |
| Cc1cc(-c2cc(Cl)ccc2OCCn2c(C)nc3c(c2=O)CC(N2CC4COCC4C2)CC3)c2scc(C(=O)NS(C)(=O)=O)c2n1 (single isomer, unassigned) [Compound 89] | < 100 | < 5000 | – | – | – | < 1000 | – |
| Cc1cc(-c2cc(Cl)ccc2OCCn2c(C)nc3c(c2=O)CC(N(C)C2CC(F)(F)C2)CC3)c2scc(C(=O)NS(C)(=O)=O)c2n1 (single isomer, unassigned) [Compound 93] | < 100 | – | – | – | < 1000 | – | < 5000 |
| Cc1cc(-c2cc(Cl)ccc2OCCn2c(C)nc3c(c2=O)CC(N(C)C2CC(F)(F)C2)CC3)c2scc(C(=O)NS(C)(=O)=O)c2n1 (single isomer, unassigned) [Compound 94] | < 100 | < 5000 | – | – | – | < 1000 | – |
| Cc1cc(-c2cc(Cl)ccc2OCCn2c(C)nc3c(c2=O)CC(N(C)Cc2ccncc2)CC3)c2scc(C(=O)O)c2n1 (single isomer, unassigned) [Compound 99] | < 100 | – | – | – | 1000 to 5000 | – | 5000 to 20000 |
| Cc1cc(-c2cc(Cl)ccc2OCCn2c(C)nc3c(c2=O)CC(N(C)Cc2cc[nH]c(=O)c2)CC3)c2scc(C(=O)O)c2n1 (single isomer, unassigned) [Compound 246] | < 100 | – | – | – | > 5000 | – | > 20000 |
| Cc1cc(-c2cc(Cl)ccc2OCCn2c(C)nc3c(c2=O)CC(N(C)Cc2cc[nH]c(=O)c2)CC3)c2scc(C(=O)O)c2n1 (single isomer, unassigned) [Compound 247] | < 100 | > 20000 | – | – | – | > 5000 | – |
| Cc1cc(-c2cc(Cl)ccc2OCCn2c(C)nc3c(c2=O)CC(N2CCCCC2)CC3)c2scc(C(=O)O)c2n1 (single isomer, unassigned) [Compound 249] | < 100 | – | – | – | < 1000 | – | 5000 to 20000 |
| Cc1cc(-c2cc(Cl)ccc2OCCn2c(C)nc3c(c2=O)CC(N2CCCCC2)CC3)c2scc(C(=O)O)c2n1 (single isomer, unassigned) [Compound 250] | < 100 | < 5000 | – | – | – | < 1000 | – |
| Cc1cc(-c2cc(Cl)ccc2OCCn2c(C)nc3c(c2=O)CC(N2CCC(F)(F)CC2)CC3)c2scc(C(=O)NS(C)(=O)=O)c2n1 (single isomer, unassigned) [Compound 251] | < 100 | – | – | – | < 1000 | – | < 5000 |
| Cc1sc2c(-c3cc(Cl)ccc3OCCn3c(C)nc4c(c3=O)CC(N(C)CC3CC(F)(F)C3)CC4)cn(C)c(=O)c2c1C(=O)O (single isomer, unassigned) [Compound 252] | < 100 | 5000 to 20000 | – | – | – | 1000 to 5000 | – |
| Cc1sc2c(-c3cc(Cl)ccc3OCCn3c(C)nc4c(c3=O)CC(N(C)CC3CC(F)(F)C3)CC4)cn(C)c(=O)c2c1C(=O)O (single isomer, unassigned) [Compound 253] | 100 to 500 | > 20000 | – | – | – | > 5000 | – |

| SMILES | IC50 (human eIF4E protein) [nM] | IC50 [1] [nM] | IC50 [2, 3] [nM] | IC50 ([1]; Homo sapiens) [nM] | IC50 [2, 4] [nM] | IC50 [2, 5] [nM] | IC50 ([1]; Homo sapiens, COLO 205, 72 h) [nM] |
| --- | --- | --- | --- | --- | --- | --- | --- |
| Cc1cc(-c2cc(Cl)ccc2OCCn2c(C)nc3c(c2=O)CC(N2CCC(F)(F)CC2)CC3)c2scc(C(=O)NS(C)(=O)=O)c2n1 (single isomer, unassigned) [Compound 254] | < 100 | < 5000 | – | – | – | < 1000 | – |
| Cc1cc(-c2cc(Cl)ccc2OCCn2c(C)nc3c(c2=O)CC(N(C)CC2CC(F)(F)C2)CC3)c2scc(C(=O)NS(C)(=O)=O)c2n1 (single isomer, unassigned) [Compound 256] | < 100 | – | – | – | < 1000 | – | < 5000 |
| Cc1cc(-c2cc(Cl)ccc2OCCn2c(C)nc3c(c2=O)CC(N(C)CC2CC(F)(F)C2)CC3)c2scc(C(=O)O)c2n1 (single isomer, unassigned) [Compound 259] | < 100 | < 5000 | – | – | < 1000 | – | – |
| Cc1cc(-c2cc(Cl)ccc2OCCn2c(C)nc3c(c2=O)CC(N2CCC[C@H](F)C2)CC3)c2scc(C(=O)NS(C)(=O)=O)c2n1 (single isomer, unassigned) [Compound 264] | < 100 | – | – | – | < 1000 | – | < 5000 |
| Cc1nc2c(c(=O)n1CC#Cc1ccc(Cl)cc1-c1ccnc3c(C(=O)NS(C)(=O)=O)csc13)CC(N(C)C)CC2 (single isomer, unassigned) [Compound 266] | 500 to 5000 | – | – | – | > 5000 | – | > 20000 |
| Cc1nc2c(c(=O)n1CC#Cc1ccc(Cl)cc1-c1ccnc3c(C(=O)NS(C)(=O)=O)csc13)CC(N(C)C)CC2 (single isomer, unassigned) [Compound 273] | 500 to 5000 | > 20000 | – | – | – | > 5000 | – |
| Cc1cc(-c2cc(Cl)ccc2OCCn2c(C)nc3c(c2=O)CC(N2CCC(C(F)F)CC2)CC3)c2scc(C(=O)O)c2n1 (stereo not drawn) [Compound 124] | < 100 | – | – | – | – | – | < 5000 |
| [2H]C([2H])([2H])N(Cc1ccnc(OC)c1)C1CCc2nc(C)n(CCOc3ccc(Cl)cc3-c3cc(C)nc4c(C(=O)O)csc34)c(=O)c2C1 (stereo not drawn) [Compound 125, 7-(5-chloro-2-(2-(6-(((2-methoxypyridin-4-yl)methyl)(methyl-d3)amino)-2-methyl-4-oxo-5,6,7,8-tetrahydroquinazolin-3(4H)-yl)ethoxy)phenyl)-5-methylthieno[3,2-b]pyridine-3-carboxylic acid] | < 100 | – | – | – | – | – | < 5000 |
| Cc1cc(-c2cc(Cl)ccc2OCCn2c(C)nc3c(c2=O)CC(N2C4CCC2CC(F)(F)C4)CC3)c2scc(C(=O)O)c2n1 (stereo not drawn) [Compound 126] | < 100 | – | – | – | – | – | < 5000 |
| Cc1cc(-c2cc(Cl)ccc2OCCn2c(C)nc3c(c2=O)CC(N2CCC(c4cccc(C(F)(F)F)c4)CC2)CC3)c2scc(C(=O)O)c2n1 (stereo not drawn) [Compound 127] | < 100 | – | – | – | – | – | < 5000 |
| CCN(Cc1ccnc(OC)c1)C1CCc2nc(C)n(CCOc3ccc(Cl)cc3-c3cc(C)nc4c(C(=O)O)csc34)c(=O)c2C1 (stereo not drawn) [Compound 129] | < 100 | – | – | – | – | – | < 5000 |
| Cc1cc(-c2cc(Cl)ccc2OCCn2c(C)nc3c(c2=O)CC(N2CCC(c4cccs4)CC2)CC3)c2scc(C(=O)O)c2n1 (stereo not drawn) [Compound 130] | < 100 | – | – | – | – | – | < 5000 |
| Cc1cc(-c2cc(Cl)ccc2OCCn2c(C)nc3c(c2=O)CC(N2CCC(c4ccc(F)cc4)CC2)CC3)c2scc(C(=O)O)c2n1 (stereo not drawn) [Compound 132] | < 100 | – | – | – | – | – | < 5000 |
| COC1CCN(C2CCc3nc(C)n(CCOc4ccc(Cl)cc4-c4cc(C)nc5c(C(N)=O)csc45)c(=O)c3C2)CC1 (stereo not drawn) [Compound 133] | 100 to 500 | – | – | – | – | – | 5000 to 20000 |
| COC1(C)CCN(C2CCc3nc(C)n(CCOc4ccc(Cl)cc4-c4cc(C)nc5c(C(=O)O)csc45)c(=O)c3C2)CC1 (stereo not drawn) [Compound 134] | < 100 | – | – | – | – | – | < 5000 |
| Cc1cc(-c2cc(Cl)ccc2OCCn2c(C)nc3c(c2=O)CC(N2CCc4nc[nH]c4C2)CC3)c2scc(C(=O)O)c2n1 (stereo not drawn) [Compound 155] | < 100 | – | – | – | – | – | > 20000 |
| Cc1cc(-c2cc(Cl)ccc2OCCn2c(C)nc3c(c2=O)CC(N)CC3)c2scc(C(=O)O)c2n1 (stereo not drawn) [Compound 411] | < 100 | – | – | – | – | – | < 5000 |
| Cc1cc(-c2cc(Cl)ccc2OCCn2c(C)nc3c(c2=O)CC(C)(N2CCC(OC(F)(F)F)CC2)CC3)c2scc(C(=O)O)c2n1 (stereo not drawn) [Compound 536] | < 100 | – | – | – | – | – | < 5000 |
